Like-named read-outs stand apart in the source and are kept apart here.
Tests used:
[1] = tested on: mice; experiment: Glucose tolerance test (GTT); assay type: in vivo, mouse; settings: 24 h GTT, s.c., dose range 2-5 nmol/kg, percent of vehicle
Method: Freestyle Lite glucometer and strips; compounds to be tested; sterilized glucose solution 200 mg/ml.
Compounds were diluted in PBS from the 1 mM DMSO stocks right before injection. Body weight and baseline blood glucose level for each mouse were measured. Tails were snipped using sterile scissors; blood from tails was used to measure glucose. For 0.25 h GTT, mice were fasted for 5-6 h and injected with compound subcutaneously 15 mins before glucose injection. For 4 h GTT, mice were fasted O/N for 16 h and injected with compound subcutaneously 4 h before glucose injection. For 16 h GTT, mice were injected with compound subcutaneously 16 h before glucose injection; food was removed at the same time. For 24 h GTT, mice were injected with compound subcutaneously 24 h before glucose injection; food was removed 5-6 h before glucose injection. 20% glucose in water was prepared; the solution was sterilized by 0.2 μm-filtration. An intraperitoneal injection of glucose (2 g/kg) was given to the mouse. Continued to take blood samples from the tail. Blood glucose was measured at 10, 20, 30, 40, 60, 90, and 120 minutes after glucose injection. Between each of these time points, the mouse was returned to its cage and monitored (at least 6 replicate mice were used for each time-point). The average glucose measurements were plotted as a function of time and the area under the curve (AUC) was determined.

[2] = target: T1, GLP-1R (Homo sapiens, UniProt P43220); experiment: HitHunter cAMP assay (GLP-1R); assay type: cell-based; settings: cAMP; for Emax: read-out: (Emax) GLP-1R
T1 sequence (P43220 24-463): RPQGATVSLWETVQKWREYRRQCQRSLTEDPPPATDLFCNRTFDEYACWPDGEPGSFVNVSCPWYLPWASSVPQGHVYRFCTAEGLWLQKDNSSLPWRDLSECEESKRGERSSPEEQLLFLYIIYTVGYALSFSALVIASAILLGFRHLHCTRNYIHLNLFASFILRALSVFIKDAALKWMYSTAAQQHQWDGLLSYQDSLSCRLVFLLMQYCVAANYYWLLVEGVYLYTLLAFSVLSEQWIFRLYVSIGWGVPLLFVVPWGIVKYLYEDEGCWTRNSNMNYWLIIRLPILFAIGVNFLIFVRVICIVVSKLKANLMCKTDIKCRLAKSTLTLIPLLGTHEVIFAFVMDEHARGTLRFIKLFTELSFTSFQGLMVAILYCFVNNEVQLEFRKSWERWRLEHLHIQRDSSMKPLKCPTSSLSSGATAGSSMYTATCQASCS
In short: (§1)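 Suspension cells (10,000/well) in HBSS with 10 mM HEPES, 625 μM IBMX, 0.2% BSA exposed to 22-point 2-fold agonist series in duplicate for 30 min at room temperature. cAMP measured by antibody immunocompetition with overnight development, luminescence read-out.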

[3] = target: T2, GIP-R (Homo sapiens, UniProt P48546); experiment: HitHunter cAMP assay (GIP-R); assay type: cell-based; settings: cAMP; for Emax: read-out: (Emax) GIP-R
T2 sequence (P48546 22-466): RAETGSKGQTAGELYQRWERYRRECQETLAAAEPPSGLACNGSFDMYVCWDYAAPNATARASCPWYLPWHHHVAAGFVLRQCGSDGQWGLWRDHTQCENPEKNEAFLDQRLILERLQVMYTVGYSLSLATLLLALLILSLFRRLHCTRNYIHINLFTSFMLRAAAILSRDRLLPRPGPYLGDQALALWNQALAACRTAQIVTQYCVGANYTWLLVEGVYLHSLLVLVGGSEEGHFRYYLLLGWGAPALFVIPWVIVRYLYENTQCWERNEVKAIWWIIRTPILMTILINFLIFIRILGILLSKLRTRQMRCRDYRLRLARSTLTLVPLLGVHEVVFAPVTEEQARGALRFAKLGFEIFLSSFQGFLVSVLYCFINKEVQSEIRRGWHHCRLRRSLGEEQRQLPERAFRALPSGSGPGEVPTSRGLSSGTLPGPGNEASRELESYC
In short: as §1

[4] = target: T1, GLP-1R; experiment: PathHunter β-arrestin assay; assay type: cell-based
In short: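 Cells (5,000/well) plated overnight, then exposed to a 22-point 2-fold agonist dilution series in medium with 0.2% BSA for 90 min at 37 °C, 5% CO2. PathHunter detection reagent added; after 3 h at room temperature in the dark, luminescence read.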

[5] = Table 3, read-out: EC50 GLP-1R/nM
[6] = Table 3A, read-out: EC50 GLP-1R/nM
[7] = Table 3, read-out: EC50 GIP-R/nM
[8] = Table 3A, read-out: EC50 GIP-R/nM
[9] = PathHunter β-arrestin assay, read-out: β-arrestin activity EC50

Row | SMILES | AUC score [1] | Emax ([2]; Table 3) [%] | EC50 [2, 5] [nM] | Emax ([2]; Table 3A) [%] | EC50 [2, 6] [nM] | Emax ([3]; Table 3) [%] | EC50 [3, 7] [nM] | Emax ([3]; Table 3A) [%] | EC50 [3, 8] [nM] | EC50 [4, 9] [nM] | EC50 ([2]; EC50 GLP-1R/nM, Table 3) [nM] | EC50 ([2]; EC50 GLP-1R/nM, Table 3A) [nM] | EC50 ([3]; EC50 GIP-R/nM, Table 3) [nM] | EC50 ([3]; EC50 GIP-R/nM, Table 3A) [nM] | EC50 [4] [nM]
1 | CCCCCCCCCCCCCCCC(=O)N[C@@H](CCC(=O)NCCCC[C@H](NC(=O)[C@H](CO)NC(=O)[C@@H]1CCCN1C(=O)[C@@H]1CCCN1C(=O)[C@@H]1CCCN1C(=O)[C@H](C)NC(=O)CNC(=O)[C@H](CO)NC(=O)[C@H](CO)NC(=O)[C@@H]1CCCN1C(=O)CNC(=O)CNC(=O)[C@H](C)NC(=O)[C@H](CC(C)C)NC(=O)[C@H](CC(C)C)NC(=O)[C@H](Cc1c[nH]c2ccccc12)NC(=O)[C@H](CC(N)=O)NC(=O)[C@@H](NC(=O)[C@H](Cc1ccccc1)NC(=O)[C@H](CCC(=O)O)NC(=O)C(C)(C)NC(=O)[C@H](C)NC(=O)[C@H](C)NC(=O)[C@H](CCC(N)=O)NC(=O)[C@H](CCCCN)NC(=O)[C@H](CC(=O)O)NC(=O)[C@H](CC(C)C)NC(=O)[C@H](Cc1ccc(O)cc1)NC(=O)[C@@H](NC(=O)[C@H](CO)NC(=O)[C@H](Cc1ccc(O)cc1)NC(=O)[C@H](CC(=O)O)NC(=O)[C@H](CO)NC(=O)[C@@H](NC(=O)[C@H](Cc1ccccc1)NC(=O)[C@@H](NC(=O)CNC(=O)[C@H](CCC(=O)O)NC(=O)CCNC(=O)CN1CCCCC1=O)[C@@H](C)O)[C@@H](C)O)[C@@H](C)CC)C(C)C)C(N)=O)C(=O)O [Compound 5] | 2 (AUC score 2 = 26-50%) | 95 | < 0.1 | 95 | < 0.1 | 74 | 1 to 10 | 74 | 1 to 10 | 10 to 1000 |  |  |  |  | 
2 | CCCCCCCCCCCCCCCC(=O)N[C@@H](CCC(=O)NCCCC[C@H](NC(=O)[C@H](CO)NC(=O)[C@@H]1CCCN1C(=O)[C@@H]1CCCN1C(=O)[C@@H]1CCCN1C(=O)[C@H](C)NC(=O)CNC(=O)[C@H](CO)NC(=O)[C@H](CO)NC(=O)[C@@H]1CCCN1C(=O)CNC(=O)CNC(=O)[C@H](C)NC(=O)[C@H](CC(C)C)NC(=O)[C@H](CC(C)C)NC(=O)[C@H](Cc1c[nH]c2ccccc12)NC(=O)[C@H](CC(N)=O)NC(=O)[C@@H](NC(=O)[C@H](Cc1ccccc1)NC(=O)[C@H](CCC(=O)O)NC(=O)C(C)(C)NC(=O)[C@H](C)NC(=O)[C@H](C)NC(=O)[C@H](CCC(N)=O)NC(=O)[C@H](CCCCN)NC(=O)[C@H](CC(=O)O)NC(=O)[C@H](CC(C)C)NC(=O)[C@H](Cc1ccc(O)cc1)NC(=O)[C@@H](NC(=O)[C@H](CO)NC(=O)[C@H](Cc1ccc(O)cc1)NC(=O)[C@H](CC(=O)O)NC(=O)[C@H](CO)NC(=O)[C@@H](NC(=O)[C@H](Cc1ccccc1)NC(=O)[C@@H](NC(=O)CNC(=O)[C@H](CCC(=O)O)NC(=O)CCCNC(=O)CN1CCCCC1=O)[C@@H](C)O)[C@@H](C)O)[C@@H](C)CC)C(C)C)C(N)=O)C(=O)O [Compound 16] | 2 (AUC score 2 = 26-50%) | 97 | < 0.1 | 97 | < 0.1 | 22 | 1 to 10 | 22 | 10 to 100 | < 10 |  |  |  |  | 
3 | CCCCCCCCCCCCCCCC(=O)N[C@@H](CCC(=O)NCCCC[C@H](NC(=O)[C@H](CO)NC(=O)[C@@H]1CCCN1C(=O)[C@@H]1CCCN1C(=O)[C@@H]1CCCN1C(=O)[C@H](C)NC(=O)CNC(=O)[C@H](CO)NC(=O)[C@H](CO)NC(=O)[C@@H]1CCCN1C(=O)CNC(=O)CNC(=O)[C@H](C)NC(=O)[C@H](CC(C)C)NC(=O)[C@H](CC(C)C)NC(=O)[C@H](Cc1c[nH]c2ccccc12)NC(=O)[C@H](CC(N)=O)NC(=O)[C@@H](NC(=O)[C@H](Cc1ccccc1)NC(=O)[C@H](CCC(=O)O)NC(=O)C(C)(C)NC(=O)[C@H](C)NC(=O)[C@H](C)NC(=O)[C@H](CCC(N)=O)NC(=O)[C@H](CCCCN)NC(=O)[C@H](CC(=O)O)NC(=O)[C@H](CC(C)C)NC(=O)[C@H](Cc1ccc(O)cc1)NC(=O)[C@@H](NC(=O)[C@H](CO)NC(=O)[C@H](Cc1ccc(O)cc1)NC(=O)[C@H](CC(=O)O)NC(=O)[C@H](CO)NC(=O)[C@@H](NC(=O)[C@H](Cc1ccccc1)NC(=O)[C@@H](NC(=O)CNC(=O)[C@H](CCC(=O)O)NC(=O)C(C)(C)CC(=O)NCCN1CCCCC1=O)[C@@H](C)O)[C@@H](C)O)[C@@H](C)CC)C(C)C)C(N)=O)C(=O)O [Compound 18] | 2 (AUC score 2 = 26-50%) | 101 | < 0.1 | 101 | < 0.1 | 80 | 0.1 to 1 | 80 | 0.1 to 1 | < 10 |  |  |  |  | 
4 | CCCCCCCCCCCCCCCC(=O)N[C@@H](CCC(=O)NCCCC[C@H](NC(=O)[C@H](CO)NC(=O)[C@@H]1CCCN1C(=O)[C@@H]1CCCN1C(=O)[C@@H]1CCCN1C(=O)[C@H](C)NC(=O)CNC(=O)[C@H](CO)NC(=O)[C@H](CO)NC(=O)[C@@H]1CCCN1C(=O)CNC(=O)CNC(=O)[C@H](C)NC(=O)[C@H](CC(C)C)NC(=O)[C@H](CC(C)C)NC(=O)[C@H](Cc1c[nH]c2ccccc12)NC(=O)[C@H](CC(N)=O)NC(=O)[C@@H](NC(=O)[C@H](Cc1ccccc1)NC(=O)[C@H](CCC(=O)O)NC(=O)C(C)(C)NC(=O)[C@H](C)NC(=O)[C@H](C)NC(=O)[C@H](CCC(N)=O)NC(=O)[C@H](CCCCN)NC(=O)[C@H](CC(=O)O)NC(=O)[C@H](CC(C)C)NC(=O)[C@H](Cc1ccc(O)cc1)NC(=O)[C@@H](NC(=O)[C@H](CO)NC(=O)[C@H](Cc1ccc(O)cc1)NC(=O)[C@H](CC(=O)O)NC(=O)[C@H](CO)NC(=O)[C@@H](NC(=O)[C@H](Cc1ccccc1)NC(=O)[C@@H](NC(=O)CNC(=O)[C@H](CCC(=O)O)NC(=O)CSCC(=O)NCCN1CCOCC1=O)[C@@H](C)O)[C@@H](C)O)[C@@H](C)CC)C(C)C)C(N)=O)C(=O)O [Compound 32] | 2 (AUC score 2 = 26-50%) | 103 | < 0.1 | 103 | < 0.1 | 65 | 1 to 10 | 65 | 1 to 10 | > 1000 |  |  |  |  | 
5 | CCCCCCCCCCCCCCCC(=O)N[C@@H](CCC(=O)NCCCC[C@H](NC(=O)[C@H](CO)NC(=O)[C@@H]1CCCN1C(=O)[C@@H]1CCCN1C(=O)[C@@H]1CCCN1C(=O)[C@H](C)NC(=O)CNC(=O)[C@H](CO)NC(=O)[C@H](CO)NC(=O)[C@@H]1CCCN1C(=O)CNC(=O)CNC(=O)[C@H](C)NC(=O)[C@H](CC(C)C)NC(=O)[C@H](CC(C)C)NC(=O)[C@H](Cc1c[nH]c2ccccc12)NC(=O)[C@H](CC(N)=O)NC(=O)[C@@H](NC(=O)[C@H](Cc1ccccc1)NC(=O)[C@H](CCC(=O)O)NC(=O)C(C)(C)NC(=O)[C@H](C)NC(=O)[C@H](C)NC(=O)[C@H](CCC(N)=O)NC(=O)[C@H](CCCCN)NC(=O)[C@H](CC(=O)O)NC(=O)[C@H](CC(C)C)NC(=O)[C@H](Cc1ccc(O)cc1)NC(=O)[C@@H](NC(=O)[C@H](CO)NC(=O)[C@H](Cc1ccc(O)cc1)NC(=O)[C@H](CC(=O)O)NC(=O)[C@H](CO)NC(=O)[C@@H](NC(=O)[C@H](Cc1ccccc1)NC(=O)[C@@H](NC(=O)CNC(=O)[C@H](CCC(=O)O)NC(=O)CSCC(=O)NCCN1CCCCCC1=O)[C@@H](C)O)[C@@H](C)O)[C@@H](C)CC)C(C)C)C(N)=O)C(=O)O [Compound 41] | 4 (AUC score 4 = 76-100%) | 100 to 104 |  | 100 to 104 |  | 75 |  | 75 |  |  | 0.1 to 1 | 0.1 to 1 | 1 to 10 | 1 to 10 | > 1000

Reference: US20260176320A1, “MODULATORS OF G-PROTEIN COUPLED RECEPTORS” (priority 2018, published 2026)
